This assay concerns the target FP receptor (Homo sapiens (Human), UniProt P43088). Put plainly: In vitro test of inhibition of human FP receptor activity (PGF2α-induced calcium flux in FP-expressing CHEM1 cells). The assay is classed as cell-based. The note with it: PGF2α 2 nM, some mean values of multiple determinations. The essentials: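 FP antagonism in FP-expressing CHEM1 cells loaded with Fluo-8. Compound preincubated 10 min at 37° C, then receptor stimulated with 2 nM (final) PGF2α in calcium-free Tyrode with 2 mM CaCl2.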
(In general: A change in cytosolic calcium serves as a functional read-out for many receptors and channels.)

A word on the IC50: it is the point on the concentration scale where inhibition reaches its midpoint.

FP receptor, sequence (P43088 whole entry): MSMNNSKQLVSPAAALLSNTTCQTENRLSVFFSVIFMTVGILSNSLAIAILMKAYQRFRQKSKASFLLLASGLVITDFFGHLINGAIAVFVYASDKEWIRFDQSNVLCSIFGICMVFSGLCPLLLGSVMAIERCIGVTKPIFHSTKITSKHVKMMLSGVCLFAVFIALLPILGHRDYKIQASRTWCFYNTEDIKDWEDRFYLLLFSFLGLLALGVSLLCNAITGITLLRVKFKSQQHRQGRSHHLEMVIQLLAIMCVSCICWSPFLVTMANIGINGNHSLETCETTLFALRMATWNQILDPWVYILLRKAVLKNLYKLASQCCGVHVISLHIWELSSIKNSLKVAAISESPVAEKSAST

Take `CCC1CCCN(c2nc3ccc(Br)cc3c(C(=O)NCC(CCC(=O)O)c3c(Cl)ccc(Cl)c3Cl)c2C)C1` (centres unmarked) [Example 181, 5-[({6-Bromo-2-[3-ethylpiperidin-1-yl]-3-methylquinolin-4-yl}carbonyl)amino]-4-(2,3,6-trichlorophenyl)pentanoic acid]: the IC50 came to 0.0066 µM.

In the case of `Cc1c(N2CCCC2)nc2ccc(Br)cc2c1C(=O)NCC(CCC(=O)O)c1ccccc1C(F)(F)F` (racemic) [Example 114, (+/−)-5-({[6-Bromo-3-methyl-2-(pyrrolidin-1-yl)quinolin-4-yl]carbonyl}amino)-4-[2-(trifluoromethyl)phenyl]pentanoic acid], the IC50 came to 0.014 µM. Consider `Cc1c(N2CCOC(CO)C2)nc2ccc(Br)cc2c1C(=O)NCC(CCC(=O)O)c1cc(F)ccc1Cl` (centres unmarked) [Example 20, 5-[({6-Bromo-2-[2-(hydroxymethyl)morpholin-4-yl]-3-methylquinolin-4-yl}carbonyl)amino]-4-(2-chloro-5-fluorophenyl)pentanoic acid], for which the IC50 came to 0.49 µM. Turning to `Cc1c(N2CCCCCC2)nc2ccc(Br)cc2c1C(=O)NCC(CCC(=O)O)c1ccccc1C(F)(F)F` (racemic) [Example 120, (+/−)-5-({[2-(Azepan-1-yl)-6-bromo-3-methylquinolin-4-yl]carbonyl}amino)-4-[2-(trifluoromethyl)phenyl]pentanoic acid], the IC50 was found to be 0.011 µM. `Cc1c(N2CCCC(F)(F)C2)nc2ccc(Br)cc2c1C(=O)NCC(CCC(=O)O)c1c(Cl)cccc1Cl` (single isomer, unassigned; (+)) [Example 266, (+)-5-({[6-Bromo-2-(3,3-difluoropiperidin-1-yl)-3-methylquinolin-4-yl]carbonyl}amino)-4-(2,6-dichlorophenyl)pentanoic acid]: the IC50 is 0.037 µM. `Cc1c(N2CCCC(F)(F)C2)nc2ccc(Br)cc2c1C(=O)NCC(CCC(=O)O)c1c(F)ccc(F)c1Cl` (single isomer, unassigned; (-)) [Example 218, (−)-5-({[6-Bromo-2-(3,3-difluoropiperidin-1-yl)-3-methylquinolin-4-yl]carbonyl}amino)-4-(2-chloro-3,6-difluorophenyl)pentanoic acid]: the IC50 came out at 0.0012 µM. To `Cc1ccccc1C(CCC(=O)O)CNC(=O)c1c(C)c(N2CCCC(F)(F)C2)nc2ccc(Br)cc12` (single isomer, unassigned; (+)) [Example 231, (+)-5-({[6-Bromo-2-(3,3-difluoropiperidin-1-yl)-3-methylquinolin-4-yl]carbonyl}amino)-4-(2-methylphenyl)pentanoic acid] belongs 0.039 µM; to `Cc1c(N2CCCC(F)(F)C2)nc2ccc(Br)cc2c1C(=O)NCC(CCC(=O)O)c1c(Cl)ccc(Cl)c1Cl` (single isomer, unassigned; (-)) [Example 179, (−)-5-({[6-Bromo-2-(3,3-difluoropiperidin-1-yl)-3-methylquinolin-4-yl]carbonyl}amino)-4-(2,3,6-trichlorophenyl)pentanoic acid], 0.0023 µM; to `Cc1c(N2CCCC(F)C2)nc2ccc(Br)cc2c1C(=O)NCC(CCC(=O)O)c1c(F)cccc1C(F)(F)F` (centres unmarked) [Example 169, 5-[({6-Bromo-2-[3-fluoropiperidin-1-yl]-3-methylquinolin-4-yl}carbonyl)amino]-4-[2-fluoro-6-(trifluoromethyl)phenyl]pentanoic acid], 0.0091 µM. As to `Cc1c(N2CCSCC2)nc2ccc(Br)cc2c1C(=O)NCC(CCC(=O)O)c1ccccc1Cl` (racemic) [Example 25, (+/−)-5-({[6-Bromo-3-methyl-2-(thiomorpholin-4-yl)quinolin-4-yl]carbonyl}amino)-4-(2-chlorophenyl)pentanoic acid], the IC50 worked out at 0.022 µM. As for `COc1ccccc1C(CCC(=O)O)CNC(=O)c1c(C)c(N2CCCCC2)nc2ccc(Br)cc12` (single isomer, unassigned; (-)) [Example 236, (−)-5-({[6-Bromo-3-methyl-2-(piperidin-1-yl)quinolin-4-yl]carbonyl}amino)-4-(2-methoxyphenyl)pentanoic acid], the half-inhibitory concentration (IC50) was found to be 0.011 µM. Turning to `CCC1CCCN(c2nc3ccc(Br)cc3c(C(=O)NCC(CCC(=O)O)c3ccccc3C(F)(F)F)c2C)C1` (single isomer, unassigned; (+)) [Example 193, (+)-5-[({6-Bromo-2-[3-ethylpiperidin-1-yl]-3-methylquinolin-4-yl}carbonyl)amino]-4-[2-(trifluoromethyl)phenyl]pentanoic acid], the IC50 turned out to be 0.00062 µM.

Turning to `Cc1c(N2CCCCC2)nc2ccc(Br)cc2c1C(=O)NCC(CCC(=O)O)c1cccc(F)c1Cl` (racemic) [Example 141, (+/−)-5-({[6-Bromo-3-methyl-2-(piperidin-1-yl)quinolin-4-yl]carbonyl}amino)-4-(2-chloro-3-fluorophenyl)pentanoic acid], the IC50 amounted to 0.0058 µM. On to `Cc1c(N2CCC(F)(F)CC2)nc2ccc(Br)cc2c1C(=O)NCC(CCC(=O)O)c1ccccc1Cl` (racemic) [Example 28, (+/−)-5-({[6-Bromo-2-(4,4-difluoropiperidin-1-yl)-3-methylquinolin-4-yl]carbonyl}amino)-4-(2-chlorophenyl)pentanoic acid], for which the half-maximal inhibitory concentration (IC50) was 0.031 µM. Regarding `Cc1c(N2CCCCC2)nc2ccc(Br)cc2c1C(=O)NCC(CCC(=O)O)c1c(Cl)ccc(F)c1F` (single isomer, unassigned; (+)) [Example 146, (+)-5-({[6-Bromo-3-methyl-2-(piperidin-1-yl)quinolin-4-yl]carbonyl}amino)-4-(6-chloro-2,3-difluorophenyl)pentanoic acid], the IC50 was found to be 0.022 µM. As for `Cc1c(N2CCCC(F)C2)nc2ccc(Br)cc2c1C(=O)NCC(CCC(=O)O)c1ccccc1C(F)(F)F` (single isomer, unassigned) [Example 192, 5-[({6-Bromo-2-[3-fluoropiperidin-1-yl]-3-methylquinolin-4-yl}carbonyl)amino]-4-[2-(trifluoromethyl)phenyl]pentanoic acid], the IC50 was 0.0056 µM. The value for `Cc1c(N2CCN(C)CC2)nc2ccc(Br)cc2c1C(=O)NCC(CCC(=O)O)c1ccccc1Cl` (racemic) [Example 54, (+/−)-5-({[6-Bromo-3-methyl-2-(4-methylpiperazin-1-yl)quinolin-4-yl]carbonyl}amino)-4-(2-chlorophenyl)pentanoic acid] was 0.85 µM; that for `Cc1c(N2CCCC(F)C2)nc2ccc(Br)cc2c1C(=O)NCC(CCC(=O)O)c1ccccc1Cl` (single isomer, unassigned; (-)) [Example 186, (−)-5-[({6-Bromo-2-[3-fluoropiperidin-1-yl]-3-methylquinolin-4-yl}carbonyl)amino]-4-(2-chlorophenyl)pentanoic acid] was 0.0086 µM. To `Cc1c(N2CCCC2C)nc2ccc(Br)cc2c1C(=O)NCC(CCC(=O)O)c1ccccc1Cl` (centres unmarked) [Example 79, 5-[({6-Bromo-3-methyl-2-[2-methylpyrrolidin-1-yl]quinolin-4-yl}carbonyl)amino]-4-(2-chlorophenyl)pentanoic acid] belongs 0.0078 µM. To `Cc1c(N2CCCC2)nc2ccc(Br)cc2c1C(=O)NCC(CCC(=O)O)c1c(F)cccc1C(F)(F)F` (racemic) [Example 163, (+/−)-5-({[6-Bromo-3-methyl-2-(pyrrolidin-1-yl)quinolin-4-yl]carbonyl}amino)-4-[2-fluoro-6-(trifluoromethyl)phenyl]pentanoic acid] belongs 0.011 µM.

The values above are taken from US11149018B2, “Substituted N-arylethyl-2-aminoquinoline-4-carboxamides and use thereof” (Bayer Aktiengesellschaft, priority 2017, dated 2021).
